# Test results taken from patent publication US20120034210A1, “COMPOSITIONS FOR POTENTIATING APOPOSIS SIGNALS IN TUMOUR CELLS” (INSTITUT BERGONIE, priority 2008, published 2012).
# “Also recorded” adds a separate entry of the source. Peptide text beside a SMILES is read from it. * marks the point of attachment. Cbz = O=C(OCc1ccccc1)*
# Tests used:
# [1] = tested on: DISC macro-complex (Fas/FADD/Caspase-8); test: DISC formation: Fas immunoprecipitation and Western blot; type: cell-based, human; conditions: for recruitment of FADD and DISC formation: non-permeant chelators lowering extracellular calcium
# Protocol: Cells were incubated with 1 μg/ml APO1-3 for 30 minutes at 4° C. After washing, cells were incubated for 15 minutes at 4° C. (0 minutes) or at 37° C. (15 minutes) and then lysed for 30 minutes at 4° C. in a lysis buffer (25 mM HEPES pH 7.4, 1% Triton X-100, 150 mM NaCl, 2 mM EDTA, a cocktail including protease inhibitors (Sigma)). The lysed cells were then centrifugated for 15 minutes at 15000 rpm in order to eliminate genomic DNA, and the supernatant was kept. The sepharose beads which were coupled with protein A were added to the lysate and the mixture was incubated for 2 hours. The beads were recovered, washed intensively and the immunoprecipitated proteins were re-suspended in a denaturing and reducing buffer (0.01M Tris-HCl pH6.8, 10% glycerol (v/v), 85 mM sodium dodecyl sulfate (SDS), 5% (v/v) […] and 0.005% (w/v) bromophenol blue) then heated at 100° C. for 5 minutes. The samples were deposited in an acrylamide/Bisacrylamide gel and separated by electrophoresis. The proteins were transferred from the gel into a nitrocellulose membrane using a semi-dry medium transfer technique for 2 hours at constant amperage (0.8 mA/cm^2). […] After transfer, the nitrocellulose membrane was saturated with proteins for 30 minutes with a TBST buffer (50 mM Tris pH=8, 0.15M sodium chloride, 0.05% (v/v) Tween-20) containing 5% (w/v) skimmed powdered milk (TBSTM). After washing with TBST, the membrane was incubated for 2 hours with the primary antibody in TBST. The membrane was washed intensively then incubated for one hour with TBST containing the secondary peroxidase-coupled antibody. […] This solution contained a substrate metabolised by peroxidase to yield a luminescent compound, which allowed marking a radiographic film (Amersham).
# [2] = tested on: T and B leukemia/lymphoma cell lines and activated PBLs treated with FasL; test: Fas/CD95-mediated cell death (MTT test); type: cell-based, human; conditions: for sensitivity to the CD95-mediated apoptotic signal (% cell death): down-modulation of extracellular calcium, T and B-cell lines, vs untreated
# Protocol: 2 to 4.10^4 cells were deposited in wells in a 96-well plate. The cells were incubated, in the presence of the different reactants for the times specified, at 37° C. in a final volume of 100 or 200 μl.
# The MTT test enabled to measure the activity of a mitochondrial enzyme, the dehydrogenase succinate which transforms MTT (or 3-(4,5-dimethylthiazol-2-yl)-2,5-diphenyltetrazolium) bromide originally yellow in colour and soluble, into blue formazan crystals, insoluble in aqueous phase. Upon completion of the different treatments, the living cells were quantified by adding in each well 15 μl PBS (Phosphate Buffered Saline) containing 5 mg/ml MTT. […] Spectrophotometric reading of absorbance was done at 570 nm. The measurement of the optical density is directly proportional to the number of living cells and the percentage of cell death was calculated with the following formula: 100-[(DO treated cells/DO non-treated cells)*100].
# [3] = tested on: Raji, BL2, Jurkat cell lines and activated PBL; test: Apoptosis % by loss of mitochondrial membrane potential; type: cell-based, human; conditions: for induction of cell death via DR4/DR5 with calcium chelation: BL2 cell line, 24 h, prior incubation 15 minutes BAPTA-AM 1 μM
# Protocol: 2 to 4.10^4 cells were deposited in wells in a 96-well plate. The cells were incubated, in the presence of the different reactants for the times specified, at 37° C. in a final volume of 100 or 200 μl. The apoptotic cells were identified in the cellular populations by measuring mitochondrial de-polarisation. […] These potentiometric probes allowed monitoring the variations of the mitochondrial membrane potential. […] Following cell treatment with the different drugs, the former were placed in the presence of TMRM or DIOC6 at 10 nM concentration, for 20 minutes at 37° C. then the fluorescence of the cells was analysed by flow cytometry.
# Raji cells = test: Raji B lymphoma tumour growth in Rag2-/-γ-/- mice; type: in vivo; conditions: Raji s.c.; single agent; Rituximab 2 mg/kg, Zoledronate 4 mg/kg
# Protocol: The implantation of the tumours was done subcutaneously in Rag2−/−γ−/− mice flank aged from 5 to 7 weeks. Following implantation of the tumours, the mice were divided in groups of 8 to 10 animals for each treatment. The size of the tumour was assessed every day by measuring its width (w) and its length (I). Its volume was calculated according to the formula: V=lw^2/2. At the end of the experiment, the animals were sacrified, the tumour weight was measured.
# From 10^6 Raji cells were implanted subcutaneously in mice flank. The effects of Rituximab alone, of Zoledronate alone, are assessed on the growth of tumours. Rituximab (2 mg/kg) was delivered 3 times a week, Zoledronate was delivered 1 time a week.
# [4] = tested on: intracellular calcium concentration; test: Intracellular Ca2+ concentration, indo-1 (micro)spectrofluorimetry; type: cell-based, human
# Protocol: Principle: [Ca^2+]i was measured by microspectrofluorimetry using a calcium sensitive fluorescent probe: indo-1. When excited at 360 nm wavelength, the so-called monoexcitation/double emission indo-1 probe transmitted back in a spectrum ranging from 400 to 500 nm. Binding of Ca^2+ to indo-1 caused displacement of the emission spectrum after excitation. The emission maximum in the unbound form was located around 480 nm. The emission of the complexed form was around 405 nm. An increase of calcium concentration thus caused the emission to increase to 405 nm and the emission to decrease to 480 nm. The ratio of both fluorescence intensities allowed to be independent from the quantity of the probe and to determine the [Ca^2+]i according to the Grynkiewicz equation:
# [Ca^2+]i(nM)=Kd.β×(R−Rmin)/(Rmax−R)
# Rmax, Rmin and Kd. β were determined by combining electrophysiology (patch clamp) and spectrofluorimetry. Rmax was determined by placing in the patch pipette a medium containing 10 mM CaCl2. Rmin was obtained by placing as an intrapipette solution a calcium-deprived medium (10 mM EGTA).
# The cells were then rinsed with HBSS (800 rpm centrifugation for 2 minutes) and placed in an observation chamber on a glass coverslip. […] The excitation light is supplied by a Xenon lamp (100W). […] The substances to be tested were applied using a glass pipette positioned at some twenty μm of the studied cell and connected to a pneumatic system.
# The principle as well as the loading of the cells were identical with the measurement on single cells. In such a case, approx. 40,000 cells were placed in a quartz tub under constant agitation. The tub was then placed in a Hitachi spectrofluorimeter whereof the excitation monochromator was set to 350 nm. […] The signals were transmitted to a computer via an analogue/digital converter. So as to be able to apply the Grynkiewicz equation (see above) and translate the fluorescence ratios measured in calcium values, the calibration parameters were entered into the software. The substances to be tested were applied directly in the tube under constant agitation.
molecule,measurement,setting,value
"O=C(O)CN(CC(=O)O)c1ccccc1OCCOc1ccccc1N(CC(=O)O)CC(=O)O [BAPTA, 1,2-bis(o-aminophenoxy)ethane-N,N,N′,N′-tetraacetic acid]",recruitment of FADD and DISC formation,"[1]; H9 cells, CD95 stimulation",enhanced the recruitment of FADD and the DISC formation; also recorded: enhanced recruitment of FADD as well as enhanced DISC formation
same,sensitivity to the CD95-mediated apoptotic signal (% cell death),[2],increased the sensitivity of T and B-cell lines to the CD95-mediated apoptotic signal
"O=C(O)CN(CCOCCOCCN(CC(=O)O)CC(=O)O)CC(=O)O [EGTA, glycol-bis(2-aminoethylether)-N,N,N′,N′-tetraacetic acid]",recruitment of FADD and DISC formation,"[1]; H9 cells, CD95 stimulation",enhanced the recruitment of FADD and the DISC formation; also recorded: enhanced recruitment of FADD as well as enhanced DISC formation
same,sensitivity to the CD95-mediated apoptotic signal (% cell death),[2],increased the sensitivity of T and B-cell lines to the CD95-mediated apoptotic signal
CC(C)C[C@@H](C=O)NC(=O)[C@H](CC(C)C)NC(=O)[C@H](CC(C)C)NC(=O)OCc1ccccc1 [MG132] (Cbz-Leu-Leu-Leu-aldehyde),induction of cell death via DR4/DR5 with calcium chelation,[3],potentiated by calcium chelation
Clc1ccc(C(c2ccc(Cl)cc2)n2cc[n+](CC(OCc3ccc(Cl)cc3Cl)c3ccc(Cl)cc3Cl)c2)cc1 (stereo not shown) [calmidazolium],effect on CD95-mediated apoptotic signal,[2]; calmodulin antagonist or CaMKII inhibitory peptide,did not alter the CD95-mediated apoptotic signal
CNCCC(Oc1ccc(C(F)(F)F)cc1)c1ccccc1 (stereo not shown) [fluoxetine],induction of cell death via DR4/DR5 with calcium chelation,[3],potentiated by calcium chelation
C[C@H](CCC(=O)O)C[C@H](C)C[C@H](C)C(=O)/C=C(\O)[C@H](C)C[C@H](C)C/C=C/[C@@H](C)[C@@H](O)[C@@H](C)[C@@H](O)C[C@@H]1CC[C@@](C)([C@H]2CC[C@@](C)([C@@H](C)O)O2)O1 [ionomycine],DISC formation / FADD recruitment upon CD95 stimulation,"[1]; H9, Jurkat, activated PBTs, non-cytotoxic concentrations, vs untreated cells",prevented the recruitment of FADD to CD95 and the DISC formation; also recorded: absence of FADD recruitment and DISC formation
same,formation of the DISC macro-complex,"[1]; H9 cells, BAPTA-AM 1-10 μM or ionomycine 1 μM pre-incubation, then anti-Fas APO1-3 1 μg/ml 15 min 37° C., vs untreated cells",interfered with the formation of the DISC complex
same,FADD binding and activation of caspase-8,"[1]; H9 cells, ionomycine 1 μM, anti-Fas APO1-3",decreased the FADD binding and the activation of caspase-8
Oc1ccc(C=Cc2cc(O)cc(O)c2)cc1 [resveratrol],induction of cell death via DR4/DR5 with calcium chelation,[3],potentiated by calcium chelation
C1CCC[C@H]2CCCN3CC[C@@H](CCCCCC[C@@H]4CCCN5CC[C@@H](CC1)O[C@@H]45)O[C@@H]23 [xestospongin C],FADD binding to CD95,"[1]; IP3-R antagonist, CD95 stimulation",significantly promoted FADD binding to CD95; also recorded: significant increase in FADD binding to CD95
Rituximab: anti-CD20 monoclonal antibody,death signalling and apoptosis induced by Rituximab in low calcium medium,"[3]; Raji, defined medium 0.5 mM vs 4 mM calcium",allowed potentiating the death signalling and apoptosis
same,cell death signal induced by Rituximab with added extracellular calcium,"[3]; Raji, medium 3 mM vs 0.8 mM calcium",inhibited the cell death signal
same,tumour mass vs vehicle,Raji cells,not significantly affected
"TRAIL: soluble recombinant human TRAIL (TNF-related Apoptosis-Inducing Ligand), binds DR4 or DR5 (protein, UniProt P50591 39-281, looked up, extracellular domain) extracellular domain: TNELKQMQDKYSKSGIACFLKEDDSYWDPNDEESMNSPCWQVKWQLRQLVRKMILRTSEETISTVQEKQQNISPLVRERGPQRVAAHITGTRGRSNTLSSPNSKNEKALGRKINSWESSRSGHSFLSNLHLRNGELVIHEKGFYYIYSQTYFRFQEEIKENTKNDKQMVQYIYKYTSYPDPILLMKSARNSCWSKDAEYGLYSIYQGGIFELKENDRIFVSVTNEHLIDMDHEASFFGAFLVG",induction of cell death via DR4/DR5 with calcium chelation,[3],potentiated by calcium chelation
"CD95L: soluble CD95 ligand (Fas ligand), gp190-CD95L generated by Legembre et al. (protein, UniProt P48023 103-281, looked up, extracellular domain gp190 fusion) extracellular domain: QLFHLQKELAELRESTSQMHTASSLEKQIGHPSPPPEKKELRKVAHLTGKSNSRSMPLEWEDTYGIVLLSGVKYKKGGLVINETGLYFVYSKVYFRGQSCNNLPLSHKVYMRNSKYPQDLVMMEGKMMSYCTTGQMWARSSYLGAVFNLTSADHLYVNVSELSLVNFEESQTFFGLYKL",intracellular calcium peak upon CD95L,"[4]; H9 and Jurkat, rapid and transient, basal level 100 to 150 nM",up to 700 nM
same,calcium response to CD95L,[4]; Jurkat CD95-Q257K vs parental cell line,the calcium response remained unaltered
same,increase in [Ca2+]i upon CD95L,"[4]; cells devoid of FADD, caspase-8 or caspase-8 and -10",did not display any modification of the increase in [Ca^2+]i
